Source: patent publication EP4813463A2, “TYK2 INHIBITORS AND COMPOSITIONS AND METHODS THEREOF” (Lynk Pharmaceuticals Co. Ltd., priority 2023, dated 2024)
Like-named read-outs stand apart in the source and are kept apart here.

Columns and labels:
[1] = biological target: T1, TYK2 (Homo sapiens, UniProt P29597); assay: TYK2 kinase activity, microfluidic assay (Caliper EZ Reader II, FAM labeled peptide substrate); type: biochemical; conditions: TYK2 20 nM, 1 mM ATP
T1 construct: purchased Carna Biosciences
T1 sequence (P29597 897-1176 limits assumed): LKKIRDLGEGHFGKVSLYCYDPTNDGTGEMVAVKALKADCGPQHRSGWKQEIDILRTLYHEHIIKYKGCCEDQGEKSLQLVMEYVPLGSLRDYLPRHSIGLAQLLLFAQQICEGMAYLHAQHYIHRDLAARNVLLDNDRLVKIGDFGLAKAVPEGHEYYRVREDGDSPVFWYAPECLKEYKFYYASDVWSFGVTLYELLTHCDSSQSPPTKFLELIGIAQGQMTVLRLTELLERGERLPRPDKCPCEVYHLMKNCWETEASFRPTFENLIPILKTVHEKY
Method: (§1) Testing for JAK1, JAK2 and TYK2 Kinase Activities
(§2) JAK activity was determined in the reaction buffer 50 mM HEPES, 0.01% Brij35, 10 mM MgCl2, 2 mM DTT by a microfluidic assay. The phosphorylation of a FAM labeled peptide substrate was monitored in the Caliper EZ Reader II (Perkin Elmer). The assay condition for each batch of enzyme (Carna Biosciences) was optimized to obtain 10% conversion rate of peptide substrate.
(§3) The test compounds were dissolved in DMSO to a stock concentration of 10 mM. Three-fold serially diluted compounds with top concentration of 5 µM were pre-incubated with JAK1, JAK2 or TYK2 for 10 min at ambient temperature. The final DMSO concentration of assay mixture was 1%. […] The reaction was stopped by adding 50 mM EDTA.
(§4) And the well without compound but with equivalent DMSO was defined as no inhibition. The percent inhibition was calculated by the following formula: % Inhibition = (Conversion%_max−Conversion%_sample)/(Conversion%_max−Conversion%_min) × 100 [formula] wherein • Conversion%_ max = the conversion rate in the positive well without addition of compound • Conversion%_ sample = the conversion rate of test compounds • Conversion%_ min = the conversion rate in the well without addition of enzyme
(§5) The dose-response (percent inhibition) curve was plotted and IC50 values were determined by GraphPad software. The IC50 values of tested compounds were list in Table 3. Table 3. JAK1, JAK2 and TYK2 IC50 Values of Illustrative Compounds

[2] = Microsomal metabolic stability assay; type: in vitro ADME; conditions: human, liver microsomes, 0.5 mg/mL microsomal protein, 1 µM test article, 2 mM NADPH; for microsomal CLint at 1 µM: read-out: Human LM Clint; for half-life at 1 µM: read-out: Human LM T1/2
How it was run: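 Test or control compound (1 µM) incubated with microsomes (0.5 mg/mL protein) in 100 mM potassium phosphate pH 7.4, 1.0 mM EDTA at 37°C, started with NADPH regenerating system (2 mM NADPH). Sampled at 0, 5, 15, 30, 45 min, acetonitrile-quenched, LC/MS/MS. T1/2 from ln %remaining vs time slope; CLint = 0.693/T1/2 per mg protein/mL.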

[3] = biological target: T2, JAK2 (Homo sapiens, UniProt O60674); assay: JAK2 kinase activity, microfluidic assay (Caliper EZ Reader II, FAM labeled peptide substrate); type: biochemical; conditions: JAK2 1.5 nM, 1 mM ATP
T2 construct: purchased Carna Biosciences
T2 sequence (O60674 849-1124 limits assumed): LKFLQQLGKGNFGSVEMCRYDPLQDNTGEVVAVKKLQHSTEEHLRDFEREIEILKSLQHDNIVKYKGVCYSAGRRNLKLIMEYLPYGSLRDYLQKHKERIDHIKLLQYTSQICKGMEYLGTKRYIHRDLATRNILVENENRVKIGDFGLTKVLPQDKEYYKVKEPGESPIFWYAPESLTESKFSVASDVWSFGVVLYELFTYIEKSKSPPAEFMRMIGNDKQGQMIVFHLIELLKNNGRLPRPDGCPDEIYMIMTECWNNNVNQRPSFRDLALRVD
Method: as §1, §2, §3, §4, §5

[4] = biological target: T3, JAK1 (Homo sapiens, UniProt P23458); assay: JAK1 kinase activity, microfluidic assay (Caliper EZ Reader II, FAM labeled peptide substrate); type: biochemical; conditions: JAK1 10 nM, 1 mM ATP
T3 construct: purchased Carna Biosciences
T3 sequence (P23458 875-1153 limits assumed): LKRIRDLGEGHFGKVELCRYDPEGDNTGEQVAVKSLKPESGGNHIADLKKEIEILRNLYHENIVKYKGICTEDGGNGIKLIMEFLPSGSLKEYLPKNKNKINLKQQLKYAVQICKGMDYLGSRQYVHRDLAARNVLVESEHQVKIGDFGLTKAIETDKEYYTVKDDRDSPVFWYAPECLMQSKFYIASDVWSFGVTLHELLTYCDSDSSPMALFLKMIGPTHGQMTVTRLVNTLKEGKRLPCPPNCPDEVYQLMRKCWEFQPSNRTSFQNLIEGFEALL
Method: as §1, §2, §3, §4, §5

[5] = test system: IFNa pSTAT1; assay: Phosphorylation of STAT1 inhibition in HMC3 cells by Jess; type: cell-based; conditions: Homo sapiens; HMC3 microglia cells, 50ng/mL hINFα 1 hour, Jess western; read-out: Jess_HMC3 IC50 (IFNa pSTAT1)
Method: Seeding HMC3 cells into 12-well plate and incubate overnight. Pre-stimulation with recombinant human IFNα (Sino biological, H08Y), treat cells with compound with different concentration for 1hr. After compound treatment, stimulate HMC3 cells with 50ng/mL hINFα for another 1 hour (for CCF-STTG1 cells IFNα induction time is 30 mins). And then wash cells with DPBS once gently and lyse cells with pre-cooled RIPA buffer (Sigma, R0278-500ML) for 30min on ice to harvest cells. Centrifuge cell lysate for 20 mins at 12000rpm with freezer centrifuge (Thermo Scientific, Heraeus Fresco 21) to extract protein. Prepare samples with Jess Simple Wes kit (SM-WO04) and then run western blot on Jess simple western system (Protein simple, JS-4631). Collect data and analyzed with GraphPad Prism.

[6] = test system: Caco-2 cell lines; assay: Caco-2 cell permeability; type: in vitro ADME; conditions: Caco-2; result in words
Method: Compounds permeability was evaluated using Caco-2 cell lines. HBSS buffer was used as transfer buffer. Appropriate dosing and receiver solutions were applied to the donor and receiver chambers to initiate the transport assay in apical to basolateral (A to B) or basolateral to apical (B to A) directions. Compounds were tested at 10.0 µM in the absence of p-gp inhibitor bidirectionally in duplicates. After incubation at 37°C for 90 mins, donor and receiver samples were analyzed by LC-MS/MS. The intestinal absorption potential was assessed using Papp value and efflux ratio.

SMILES: [2H]C([2H])([2H])NC(=O)c1cnc(NC(=O)C2CC2)cc1Nc1cnn2ccc([C@@H](O)C(F)(F)F)c(OC)c12 [Example 7B, (R)-6-(cyclopropanecarboxamido)-4-((4-methoxy-5-(2,2,2-trifluoro-1-hydroxyethyl)pyrazolo[1,5-a]pyridin-3-yl)amino)-N-(methyl-d3)nicotinamide]
- IC50 [1]: > 20 µM
- microsomal CLint at 1 µM ([2]; pH 7.4): 10.8 µL/min/mg
- half-life at 1 µM ([2]; pH 7.4): 2.14 h
- IC50 [3]: > 20 µM
- IC50 [4]: > 20 µM

SMILES: [2H]C([2H])([2H])NC(=O)c1cnc(NC(=O)C2CC2)cc1Nc1cnn2ccc([C@H](O)C(F)(F)F)c(OC)c12 [Example 7A, (S)-6-(cyclopropanecarboxamido)-4-((4-methoxy-5-(2,2,2-trifluoro-1-hydroxyethyl)pyrazolo[1,5-a]pyridin-3-yl)amino)-N-(methyl-d3)nicotinamide]
- IC50 [1]: > 20 µM
- IC50 [5]: 1.04 nM
- microsomal CLint at 1 µM ([2]; pH 7.4): 15.6 µL/min/mg
- half-life at 1 µM ([2]; pH 7.4): 1.48 h
- IC50 [3]: > 20 µM
- IC50 [4]: > 20 µM

SMILES: [2H]C([2H])([2H])NC(=O)c1cnc(NC(=O)C2CC2)cc1Nc1nn(C)c2ccc([C@H](O)C(F)(F)F)c(OC)c12 [Example 49A, (S)-6-(cyclopropanecarboxamido)-4-((4-methoxy-1-methyl-5-(2,2,2-trifluoro-1-hydroxyethyl)-1H-indazol-3-yl)amino)-N-(methyl-d3)nicotinamide]
- IC50 [1]: > 5 µM
- IC50 [5]: 0.084 nM
- microsomal CLint at 1 µM ([2]; pH 7.4): 19.3 µL/min/mg
- half-life at 1 µM ([2]; pH 7.4): 1.19 h
- IC50 [3]: > 10 µM
- IC50 [4]: > 5 µM

SMILES: COC(=O)c1cnc(NC(=O)C2CC2)cc1Nc1nn(C)c2ccc([C@H](OC)C(F)(F)F)c(OC)c12 [Example 45B, Methyl (S)-6-(cyclopropanecarboxamido)-4-((4-methoxy-1-methyl-5-(2,2,2-trifluoro-1-methoxyethyl)-1H-indazol-3-yl)amino)nicotinate]
- efflux ratio compared with the amide compounds 21,23,25,33,49A and BMS986165 [6]: lower efflux ratio numbers
- IC50 [5]: 4.8 nM
- microsomal CLint at 1 µM ([2]; pH 7.4): 18.4 µL/min/mg
- half-life at 1 µM ([2]; pH 7.4): 1.26 h

SMILES: [2H]C([2H])([2H])NC(=O)c1nnc(NC(=O)C2CC2)cc1Nc1cnn2ccc([C@H](O)C(F)(F)F)c(OC)c12 [Example 30, (S)-6-(cyclopropanecarboxamido)-4-((4-methoxy-5-(2,2,2-trifluoro-1-hydroxyethyl)pyrazolo[1,5-a]pyridin-3-yl)amino)-N-(methyl-d3)pyridazine-3-carboxamide]
- IC50 [1]: > 20 µM
- microsomal CLint at 1 µM ([2]; pH 7.4): 17 µL/min/mg
- half-life at 1 µM ([2]; pH 7.4): 1.36 h
- IC50 [3]: > 20 µM
- IC50 [4]: > 20 µM

SMILES: COC(=O)c1cnc(NC(=O)[C@@H]2C[C@@H]2F)cc1Nc1nn(C)c2ccc(C(O)C(F)(F)F)c(OC)c12 (single isomer, unassigned) [Example 122A, Methyl 6-((1S,2S)-2-fluorocyclopropane-1-carboxamido)-4-((4-methoxy-1-methyl-5-((S*)-2,2,2-trifluoro-1-hydroxyethyl)-1H-indazol-3-yl)amino) nicotinate]
- efflux ratio compared with the amide compounds 21,23,25,33,49A and BMS986165 [6]: lower efflux ratio numbers
- IC50 [5]: 0.239 nM
- half-life at 1 µM ([2]; pH 7.4): 1.49 h
- microsomal CLint at 1 µM [2]: 15.5 µL/min/mg

SMILES: COC(=O)c1cnc(NC(=O)C2CC2)cc1Nc1nn(C)c2ccc([C@H](O)C(F)(F)F)c(OC)c12 [Example 48A, Methyl (S)-6-(cyclopropanecarboxamido)-4-((4-methoxy-1-methyl-5-(2,2,2-trifluoro-1-hydroxyethyl)-1H-indazol-3-yl)amino)nicotinate]
- IC50 [1]: > 5 µM
- efflux ratio compared with the amide compounds 21,23,25,33,49A and BMS986165 [6]: lower efflux ratio numbers
- IC50 [5]: 1.03 nM
- IC50 [3]: > 5 µM
- IC50 [4]: > 5 µM

SMILES: [2H]C([2H])([2H])NC(=O)c1cnc(NC(=O)C2CC2)cc1Nc1cnn2ccc([C@H](OC)C(F)(F)F)c(OC)c12 [Example 27, (S)-6-(cyclopropanecarboxamido)-4-((4-methoxy-5-(2,2,2-trifluoro-1-methoxyethyl)pyrazolo[1,5-a]pyridin-3-yl)amino)-N-(methyl-d3)nicotinamide]
- IC50 [1]: > 20 µM
- IC50 [3]: > 20 µM
- IC50 [4]: > 20 µM

SMILES: [2H]C([2H])([2H])O[C@@H](c1ccc2c(c(Nc3cc(NC(=O)C4CC4)ncc3C(=O)OC)nn2C)c1OC)C(F)(F)F [Example 50B, Methyl (S)-6-(cyclopropanecarboxamido)-4-((4-methoxy-1-methyl-5-(2,2,2-trifluoro-1-(methoxy-d3)ethyl)-1H-indazol-3-yl)amino)nicotinate]
- IC50 [1]: > 5 µM
- IC50 [5]: 9.3 nM
- microsomal CLint at 1 µM ([2]; pH 7.4): 10.9 µL/min/mg
- half-life at 1 µM ([2]; pH 7.4): 2.11 h
- IC50 [3]: > 5 µM
- IC50 [4]: > 5 µM

SMILES: [2H]C([2H])([2H])NC(=O)c1cnc(Nc2ccn(C)n2)cc1Nc1cnn2ccc([C@H](O)C(F)(F)F)c(OC)c12 [Example 21, (S)-4-((4-methoxy-5-(2,2,2-trifluoro-1-hydroxyethyl)pyrazolo[1,5-a]pyridin-3-yl)amino)-N-(methyl-d3)-6-((1-methyl-1H-pyrazol-3-yl)amino)nicotinamide]
- IC50 [1]: > 20 µM
- microsomal CLint at 1 µM ([2]; pH 7.4): 22.8 µL/min/mg
- half-life at 1 µM ([2]; pH 7.4): 1.01 h
- IC50 [3]: > 20 µM
- IC50 [4]: > 20 µM

SMILES: [2H]C([2H])([2H])NC(=O)c1cnc(NC(=O)C2CC2)cc1Nc1nn(C)c2ccc([C@H](OC([2H])([2H])[2H])C(F)(F)F)c(OC)c12 [Example 55A, (S)-6-(cyclopropanecarboxamido)-4-((4-methoxy-1-methyl-5-(2,2,2-trifluoro-1-(methoxy-d3)ethyl)-1H-indazol-3-yl)amino)-N-(methyl-d3)nicotinamide]
- IC50 [1]: > 5 µM
- IC50 [3]: > 10 µM
- IC50 [4]: > 5 µM

SMILES: [2H]C([2H])([2H])NC(=O)c1cnc(Nc2cc(C)nc(C)n2)cc1Nc1cnn2ccc([C@H](O)C(F)(F)F)c(OC)c12 [Example 25, (S)-6-((2,6-Dimethylpyrimidin-4-yl)amino)-4-((4-methoxy-5-(2,2,2-trifluoro-1-hydroxyethyl)pyrazolo[1,5-a]pyridin-3-yl)amino)-N-(methyl-d3)nicotinamide]
- IC50 [1]: > 20 µM
- IC50 [3]: > 20 µM
- IC50 [4]: > 20 µM
